In article PMC7956625, “Optimization and Anti-Cancer Properties of Fluoromethylketones as Covalent Inhibitors for Ubiquitin C-Terminal Hydrolase L1” (Molecules, 2021):
Where a SMILES comes first, the peptide text is derived from it. The star is where a group is joined. Cbz = O=C(OCc1ccccc1)*; CH2F = FC*

Assays:
UCHL1 = target: T1, UCHL1 (Homo sapiens, UniProt P09936); experiment: SW1271 cell activity-based probe target engagement assay
T1 sequence (P09936 1-223): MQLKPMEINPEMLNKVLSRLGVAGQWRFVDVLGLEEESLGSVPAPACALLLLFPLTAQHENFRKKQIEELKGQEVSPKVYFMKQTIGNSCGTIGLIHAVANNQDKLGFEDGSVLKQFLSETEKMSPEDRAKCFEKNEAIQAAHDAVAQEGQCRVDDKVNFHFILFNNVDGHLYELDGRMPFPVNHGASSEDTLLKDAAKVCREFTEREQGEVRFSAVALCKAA
Method: UCHL1 is a key promoter of cell invasion and metastasis in small cell lung cancer but not necessarily required for cell viability or proliferation. Thus, we chose to assess the efficacy of targeting UCHL1 using the SW1271 small cell lung cancer cell line. […] The Ub-ABP assay was used to confirm on target engagement of UCHL1 within these cells.
[…] Cell pellets were thawed on ice before resuspending in 200 µL lysis buffer (50 mM Tris pH 7.6, 150 mM NaCl, 5 mM MgCl2, 0.5 mM EDTA, 5 mM DTT, 2 mM ATP, 0.5% NP-40, 10% v/v glycerol) and incubating on ice for 30 min with vigorous vortexing every 10 min. Cell lysate was clarified by centrifugation (17,000× g for 10 min) and the supernatant was collected, and the concentration was determined by Bradford (performed according to manufacturer’s protocol). Cells were normalized to 2 mg mL^−1. To each reaction mixture was added 36 µL of lysate and 2 µL of HA-Ub-VME or lysis buffer. This was incubated for 30 min at room temperature before quenching with 15 µL of 4X Laemmli buffer and heating to 95 °C for 5 min. Samples were subjected to SDS-PAGE and immunoblot.

SW1271 cells = experiment: Click reaction and in-gel fluorescence of treated SW1271 cells; type: cell-based; conditions: 100 µM, 4 h
Method: Leveraging the alkyne handle, a click reaction was performed with an azide containing sulfo-cyanine5 fluorophore (Cy5) to visualize proteins within the cells that were conjugated to either the fluoromethylketone 34 or the chloromethylketone 37. Cells were pretreated with either analog then harvested and washed to removed unreacted inhibitor. The cells were then lysed and the click reaction was performed on lysates. […] Further evaluation using proteomic profiling is warranted to gain a quantitative understanding on the potential for non-specificity at off-target cysteines.
Cells were treated with 100 µM inhibitor or DMSO for 4 h before being washed, scraped, and lysed in 200 µL of lysis buffer (1× PBS, 1% v/v Triton X-100, 0.1% w/v SDS, 1X HALT) for 30 min on ice with vigorous vortexing every 10 min. Samples were then pelleted at 17,000× g for 10 min before collecting the supernatant and measuring concentration using BCA. Samples were normalized to 2 mg/mL and stored at −80 °C overnight. The following day, samples were thawed. While thawing, a click cocktail was prepared (for each sample, the cocktail consists of: 3 µL of 1.7 mM THPTA in 1:4 tBuOH/DMSO, 1 µL of 50 mM CuSO4 in water, 1 µL of 1.25 mM Cy5-N3 in DMSO, and 1 µL of 50 mM TCEP in water freshly prepared). […] The samples were then analyzed by SDS-PAGE and imaged on a Licor Odyssey and subsequently Coomassie stained.

His-UCHL1 = target: T2, His-UCHL1 (Homo sapiens, UniProt P09936); experiment: Ub binding affinity analysis using biolayer interferometry; conditions: His-UCHL1 preincubated with 1 (2 mM) overnight at room temperature
T2 construct: made in house
T2 sequence (P09936 1-223): T1 sequence (P09936 1-223)
Method: The concentration of His-UCHL1 was determined by A280 on a NanoDrop system (Thermo Scientific), after which His-UCHL1 was diluted into BLI buffer [1× PBS containing 0.05% (v/v) Tween 20 and 0.1% (w/v) bovine serum albumin (BSA)]. […] The Ni-NTA biosensor was dipped first into BLI buffer (initial baseline, 60 s), then into the His-UCH protein wells (loading step, 300 s), then into BLI buffer alone (baseline step, 60 s), then into the lowest concentration of UbV (association step, 120 s), and then into buffer alone (dissociation step, 100 s). A reference sensor loaded with protein was dipped into wells containing only buffer to adjust for protein-buffer signals. The association-dissociation was repeated with increasing concentrations of UbV. All measurements were taken at 30 °C.
Octet RED384 Data Analysis Software (ForteBio, version 9.0.0.15) was used to collect and analyze the raw data for the association and dissociation curves.

SMILES	selectivity over other DUBs in SW1271 cells (HA blot) (UCHL1; HA immunoblot)	HA-Ub-VME complex formation with UCHL1 in SW1271 cells (UCHL1; dose-response, UCHL1 immunoblot)	proteins labelled in SW1271 cells (Cy5 click, in-gel fluorescence) (SW1271 cells)	effect of conjugated 1 on UCHL1:Ub interaction (His-UCHL1)
C#Cc1ccc(COC(=O)N[C@H](C(=O)N[C@@H](C)C(=O)N[C@@H](CCC(=O)OC)C(=O)CF)C(C)C)cc1 [Cpd 34]	demonstrated selectivity over other DUBs	inhibited HA-Ub-VME complex formation with UCHL1 in a dose-dependent manner	high selectivity in cells	
COC(=O)CC[C@H](NC(=O)[C@H](C)NC(=O)[C@@H](NC(=O)OCc1ccccc1)C(C)C)C(=O)CF [Cpd 1, benzyloxycarbonyl-Val-Ala-Glu(γ-methoxy)-fluoromethylketone] (Cbz-Val-Ala-Glu(OMe)-CH2F)				completely abrogated the ability of UCHL1 to interact with Ub
